Where two headings read alike, the source gives them in different places.
Assays:
Assay type in all cases: physicochemical
[1] = Shell stability on exposure to aqueous fill composition (half-shell integrity test, H.S.I.T.)
Procedure: The same tests were performed on gelatin capsules obtained from CARDINAL HEALTH.
It has been discovered that PEG has a beneficial effect upon the shell-stabilizing property of an aqueous fill composition comprising SAE-CD. FIG. 6a depicts a ternary graph correlating the concentration of SAE-CD, water and PEG in a fill composition to the H.S.I.T. rating of a soft shell capsule exposed to the fill composition. Aqueous fill solutions comprising differing amounts of PEG, SAE-CD and water were prepared. The stability tests were conducted as described below. The HFC soft gelatin capsules described herein were used. For a composition comprising 40% wt. SBE-CD, 40% wt. water and 20% wt. PEG, the shell was stable for greater than 5 days. For a composition comprising 35% wt. SBE-CD, 35% wt. water and 30% wt. PEG, the shell was stable for greater than 5 days. For a composition comprising 18% wt. SBE-CD, 42% wt. water and 40% wt. PEG, the shell was stable for greater than 5 days. Under each of the conditions tested, the control sample excluded SAE-CD, i.e., containing only water and PEG at the indicated concentration, and failed within 24 hours. About the same results were obtained for the HFB (FIG. 6b), LFB (FIG. 7a) and LFC (FIG. 7b) soft gelatin capsules. Increasing the SAE-CD concentration to values higher than those indicated further increases the shelf-life of the shell or provides an HSIT rating of at least 4. Stabilized aqueous fill composition-containing capsule formulations can be achieved with each capsule if the following fill compositions are used.

[2] = Hard shell capsule stability in aqueous SBE-CD solutions; details: hardcap
Procedure: Two types of hard shell capsules obtained from […] were evaluated. A conventional hard gelatin capsule (HCAP) and a hard HPMC (hydroxypropyl methylcellulose) capsule (VCAP) were evaluated under identical conditions using aqueous solutions differing in the concentration of SBE-CD (sulfobutyl ether cyclodextrin).

[3] = Shell stability toward aqueous fill composition, statements on soft gelatin capsules; details: for stability provided to capsules: about ≧50% wt.
[4] = H.S.I.T. rating versus SBE concentration (FIG. 3)
Excerpt: FIG. 3 depicts a chart of the relationship between concentration of SBE cyclodextrin and H.S.I.T. (HALF-SHELL integrity test) rating for HGC (hard gelatin capsule From […]), HGS (hard gelatin capsule from SHIONOGI), HPC (hard hydroxypropyl methylcellulose shell from […]), and HPS (hard hydroxypropyl methylcellulose shell from SHIONOGI), and SSS (soft starch shell […]). The stability obtained was dependent upon the composition of the capsule gel.

[5] = Water activity measurement; details: about 20-25° C.
Procedure: Without being held bound to a particular mechanism, it is believed that the increasing the concentration of derivatized cyclodextrin present in the aqueous fill composition results in reduced water activity for the fill composition. The table below provides a summary of water activity versus concentration of cyclodextrin derivatives or some shell-stabilizing materials in water at about 20-25° C., or ambient temperature.
The values detailed above are approximate and can vary from instrument to instrument. These values were determined according to the procedure described herein on a water activity meter described herein. The numbers can also vary within the standard deviation of a particular instrument. It is also possible for the numbers to vary according to the accuracy and reproducibility of the instrument used as well as the method for calibrating the instrument with solution standards of known water activity.
Water activity was measured by placing a sample solution in a small, sealed container and determining the equilibrium humidity and temperature in the container. Instruments such as the HygroLab 3 from Rotronic Instrument Corp. , Huntington, N.Y. were used to measure the water activity. The humidity is determined using a thin film capacitive sensor in the headspace of the container. The temperature is determined using a Pt RTD 100 sensor. From these measurements the activity of water (Aw) is calculated by the instrument. The instrument has an accuracy of about ±0.015 Aw and a repeatability of about ±0.005 Aw. Carefully prepared salt-containing stock solutions of known concentration and water activity were used to calibrate the instrument prior to use.

[6] = 40% wt. cyclodextrin derivative in water, HFC
[7] = 50% wt. cyclodextrin derivative in water, HFC
[8] = 55% wt. cyclodextrin derivative in water, HFC
[9] = 60% wt. cyclodextrin derivative in water, HFC

sulfobutyl ether cyclodextrin [SAE-CD]
content in fill composition for a stabilized capsule formulation [1]: ≧18% | time the shell was stable ([1]; 18% wt. SBE-CD, 42% wt. water and 40% wt. PEG, HFC): greater than 5 days | time the shell was stable ([1]; 35% wt. SBE-CD, 35% wt. water and 30% wt. PEG, HFC): greater than 5 days | time the shell was stable ([1]; 40% wt. SBE-CD, 40% wt. water and 20% wt. PEG, HFC): greater than 5 days | Increase in shell size [1, 6]: 3 × original | Observations [1, 6]: deformed | Time for failure [1, 6]: 4 days | Increase in shell size [1, 7]: 2 × original | Observations [1, 7]: shape intact | Time for failure [1, 7]: 7 days | Increase in shell size [1, 8]: No change | Observations [1, 8]: No deformities | Time for failure [1, 8]: ≧14 days | Increase in shell size [1, 9]: no change | Observations [1, 9]: no change | Time for failure [1, 9]: >21 days | Observations ([2]; 30% SBE solution): deformed/bends | failure time ([2]; 30% SBE solution): 24 h | size ([2]; 30% SBE solution): 2 × × length | Observations ([2]; 40% SBE solution): deformed/closed | failure time ([2]; 40% SBE solution): 48 h | size ([2]; 40% SBE solution): >2 × × width | Observations ([2]; 50% SBE solution): deformed/closed | failure time ([2]; 50% SBE solution): 48 h | size ([2]; 50% SBE solution): 2 × × width | Observations ([2]; 60% SBE solution): closed/stuck | failure time ([2]; 60% SBE solution): 96 h | size ([2]; 60% SBE solution): 2 × × width | shelf-life of soft gelatin capsules ([3]; 50% wt. or more based upon total weight of water and SAE-CD or of the fill composition): at least one week | stability provided to capsules ([3]; LFB and LFC soft gelatin capsules as printed, FIG. 2): at least a one week stability | stability provided to capsules ([3]; LFB and LFC soft gelatin capsules, FIG. 1): at least a one week stability | water activity of fill composition that forms a stable soft gelatin capsule formulation ([3]; fill composition comprising SBE-CD, PEG and water, FIG. 8): ≤ 0.90±0.02 | stability of shell toward fill composition ([3]; soft gelatin shells from BANNER PHARMACAPS, less than 40% by wt. SAE-CD): unstable | stability of shell toward fill composition ([3]; soft gelatin shells from BANNER PHARMACAPS, ≧50% wt. SAE-CD): stable for at least one week | stability of shell toward fill composition ([3]; soft gelatin shells from BANNER PHARMACAPS, ≧55% wt. SAE-CD): stable for at least ten days | stability of shell toward fill composition ([3]; soft gelatin shells from BANNER PHARMACAPS, ≧60% wt. SAE-CD): stable for at least three weeks | stability of shell toward fill composition ([3]; soft gelatin shells from CARDINAL HEALTH, less than 40% by wt. SAE-CD): unstable | stability of shell toward fill composition ([3]; soft gelatin shells from CARDINAL HEALTH, ≧50% wt. SAE-CD): stable for at least one week | stability of shell toward fill composition ([3]; soft gelatin shells from CARDINAL HEALTH, ≧55% wt. SAE-CD): stable for at least two weeks | time the capsules were stable ([3]; soft gelatin shells from CARDINAL HEALTH, ≧60% wt. SAE-CD): at least 21 days | water activity of fill composition that provides an increase in the stability of the shell ([3]; soft-gelatin capsule, the agent alone in water): less than 0.95 | stability provided to capsules ([4]; SBE concentration of about ≧60% wt., hard gelatin capsules): at least a one-week stability | stability provided to capsules ([4]; hard hydroxypropyl methylcellulose capsules): at least a two-week stability | Water Activity (approximate values) ([5]; 10 % w/w in water): ~0.98 | Water Activity (approximate values) ([5]; 20 % w/w in water): ~0.98 | Water Activity (approximate values) ([5]; 30 % w/w in water): ~0.97 | Water Activity (approximate values) ([5]; 40 % w/w in water): ~0.95 | Water Activity (approximate values) ([5]; 50 % w/w in water): ~0.91 | Water Activity (approximate values) ([5]; 55 % w/w in water): ~0.88 | Water Activity (approximate values) ([5]; 60 % w/w in water): ~0.86 | Water Activity (approximate values) ([5]; 70 % w/w in water): ~0.76

O [Water]
content in fill composition for a stabilized capsule formulation ([1]; SAE-CD, PEG and water fill, HFC): ≦50%
